Laboratory results: PMC4113750 (Toxins, 2014)
Read-outs that look alike come from different tables or passages of the source.

Experiments:
Type in all cases: cell-based
hNaV1.5 = target: T1, hNaV1.5 (Homo sapiens, UniProt Q14524); assay: Whole-cell patch-clamp inhibition of hNaV1.5 in HEK 293 cells
T1 construct: expressed in transfected cells; host or cells: HEK 293 cells, transient transfection
Text: (§1) Using whole-cell voltage clamp recording techniques, currents were elicited by a 50-ms depolarizing potential of −10 mV from a holding potential of −100 mV every 5 s. […] The time constants for these inhibitions were 34.01 ± 6.81 and 34.24 ± 8.13 s, respectively (Figure 1a,d). […] Dose-response curves for NaV1 subtypes tested are summarized in Figure 1e and consist of at least three data points for each concentration.
All the voltage gated sodium channels subtypes (hNaV1.3, rNaV1.4, hNaV1.5 and hNaV1.7), along with β1 subunit to increase the current density and green fluorescent protein to serve as the report protein, were individually transiently transfected into HEK 293 cells using the lipofectamine 2000 (Invitrogen, Carlsbad, CA, USA) according to its manufacturer’s instructions. […] At 36–72 h after transfection, cells with green fluorescence were selected for whole-cell patch-clamp recording at room temperature. […]
Sodium currents were recorded on experimental cells using whole-cell patch-clamp techniques at room temperature (20–25 °C). […] Experimental data were acquired and analyzed using the programs Clampfit 10.0 (Axon Instruments, Irvine, CA, USA) and Sigmaplot 90 (Sigma, St. Louis, MO, USA). […]
Data were analyzed using the Clampfit (Molecular Devices, Irvine, CA, USA) and Sigmaplot 10.0 (Sigma, St. Louis, MO, USA) software programs. […]

hNaV1.3 = target: T2, hNaV1.3 (Homo sapiens, UniProt Q9NY46); assay: Whole-cell patch-clamp inhibition of hNaV1.3 in HEK 293 cells; conditions: 100 nM toxin, approximate
T2 construct: expressed in transfected cells; host or cells: HEK 293 cells, transient transfection

hNaV1.7 = target: T3, hNaV1.7 (Homo sapiens, UniProt Q15858); assay: Whole-cell patch-clamp inhibition of hNaV1.7 in HEK 293 cells; conditions: 100 nM toxin, approximate
T3 construct: expressed in transfected cells; host or cells: HEK 293 cells, transient transfection

rNaV1.4 = target: T4, rNaV1.4 (Rattus norvegicus, UniProt P15390); assay: Whole-cell patch-clamp inhibition of rNaV1.4 in HEK 293 cells; conditions: HEK 293 cells with β1 subunit, 50-ms depolarization to −10 mV from −100 mV every 5 s, Hill fit, mean ± S.E., room temperature
T4 construct: expressed in transfected cells; host or cells: HEK 293 cells, transient transfection
T4 sequence (P15390 whole entry): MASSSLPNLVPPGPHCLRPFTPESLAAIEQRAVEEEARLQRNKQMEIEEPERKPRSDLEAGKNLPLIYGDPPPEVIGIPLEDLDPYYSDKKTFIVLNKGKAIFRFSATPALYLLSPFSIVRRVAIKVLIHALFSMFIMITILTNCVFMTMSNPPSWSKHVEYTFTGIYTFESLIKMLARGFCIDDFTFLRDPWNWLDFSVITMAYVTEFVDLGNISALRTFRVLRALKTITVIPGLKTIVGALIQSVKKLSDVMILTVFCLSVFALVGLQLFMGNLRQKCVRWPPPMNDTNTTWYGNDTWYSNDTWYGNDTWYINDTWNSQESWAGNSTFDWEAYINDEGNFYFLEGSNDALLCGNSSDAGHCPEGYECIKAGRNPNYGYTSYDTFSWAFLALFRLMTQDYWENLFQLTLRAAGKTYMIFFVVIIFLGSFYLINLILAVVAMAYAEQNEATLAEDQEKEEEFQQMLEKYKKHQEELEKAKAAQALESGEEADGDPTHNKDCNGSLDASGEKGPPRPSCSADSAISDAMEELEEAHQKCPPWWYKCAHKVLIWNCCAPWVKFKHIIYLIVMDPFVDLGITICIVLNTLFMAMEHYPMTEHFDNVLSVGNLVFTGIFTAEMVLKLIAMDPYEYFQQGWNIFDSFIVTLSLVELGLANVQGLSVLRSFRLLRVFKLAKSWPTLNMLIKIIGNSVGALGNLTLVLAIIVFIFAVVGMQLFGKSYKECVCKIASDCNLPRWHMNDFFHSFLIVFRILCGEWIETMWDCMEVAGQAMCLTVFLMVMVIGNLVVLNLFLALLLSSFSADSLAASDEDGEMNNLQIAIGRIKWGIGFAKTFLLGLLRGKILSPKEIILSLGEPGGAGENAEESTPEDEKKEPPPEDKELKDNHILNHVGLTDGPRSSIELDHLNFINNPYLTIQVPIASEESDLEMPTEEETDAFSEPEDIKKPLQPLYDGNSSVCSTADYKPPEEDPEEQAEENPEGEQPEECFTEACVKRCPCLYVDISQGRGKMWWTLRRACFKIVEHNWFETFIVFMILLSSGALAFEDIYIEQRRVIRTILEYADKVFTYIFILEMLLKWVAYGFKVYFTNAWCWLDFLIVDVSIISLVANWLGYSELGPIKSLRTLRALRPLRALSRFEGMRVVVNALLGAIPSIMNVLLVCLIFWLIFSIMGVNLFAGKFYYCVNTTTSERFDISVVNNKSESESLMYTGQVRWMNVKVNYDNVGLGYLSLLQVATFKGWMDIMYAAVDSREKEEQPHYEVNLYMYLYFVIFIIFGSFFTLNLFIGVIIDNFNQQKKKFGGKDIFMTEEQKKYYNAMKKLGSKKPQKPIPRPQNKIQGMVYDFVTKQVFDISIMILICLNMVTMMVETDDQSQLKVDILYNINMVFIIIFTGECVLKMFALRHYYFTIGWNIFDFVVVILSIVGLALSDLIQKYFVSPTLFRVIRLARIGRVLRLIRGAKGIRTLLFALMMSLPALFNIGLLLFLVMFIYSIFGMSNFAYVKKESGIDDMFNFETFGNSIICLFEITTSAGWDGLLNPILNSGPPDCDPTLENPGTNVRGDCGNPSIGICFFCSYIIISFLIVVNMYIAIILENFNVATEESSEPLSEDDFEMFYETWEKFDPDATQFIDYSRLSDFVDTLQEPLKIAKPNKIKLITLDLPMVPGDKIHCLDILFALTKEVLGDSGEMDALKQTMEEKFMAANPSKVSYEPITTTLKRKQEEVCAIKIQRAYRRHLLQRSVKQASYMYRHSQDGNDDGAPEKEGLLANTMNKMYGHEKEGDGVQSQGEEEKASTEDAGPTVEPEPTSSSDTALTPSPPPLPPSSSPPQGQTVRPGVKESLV
T4 sequence (Q07699 19-218, further chain): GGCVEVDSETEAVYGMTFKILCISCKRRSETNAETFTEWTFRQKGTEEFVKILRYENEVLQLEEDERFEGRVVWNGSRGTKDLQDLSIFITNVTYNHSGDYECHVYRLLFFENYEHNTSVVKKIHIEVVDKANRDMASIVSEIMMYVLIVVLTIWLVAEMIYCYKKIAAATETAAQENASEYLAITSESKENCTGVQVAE
Text: as §1
After purification, we characterized the interaction of each mutant toxin with NaV1.4. Under whole-cell patch clamp configuration, rNaV1.4 current was elicited by a 50-ms depolarizing potential of −10 mV from a holding potential of −100 mV every 5 s.
All the voltage gated sodium channels subtypes (hNaV1.3, rNaV1.4, hNaV1.5 and hNaV1.7), along with β1 subunit to increase the current density and green fluorescent protein to serve as the report protein, were individually transiently transfected into HEK 293 cells using the lipofectamine 2000 (Invitrogen, Carlsbad, CA, USA) according to its manufacturer’s instructions. HEK293 cells were cultured under standard cell culture condition (5% CO2; 37 °C) in DMEM supplemented with 10% FBS. At 36–72 h after transfection, cells with green fluorescence were selected for whole-cell patch-clamp recording at room temperature. The pipette solution contained (in mM): 140 CsF, 10 NaCl, 10 HEPES and 1 EGFA, pH7.3. The bathing solution contained (in mM): 140 NaCl, 10 HEPES, 3 KCl, 1 MgCl2 and 1 CaCl2, pH7.3.
Sodium currents were recorded on experimental cells using whole-cell patch-clamp techniques at room temperature (20–25 °C). Patch pipettes with DC resistance of 2~3 MΩ were fabricated from borosilicate glass tubing (VWR micropipettes; VWR Co., West Chester, PA, USA) using a two-stage vertical microelectrode puller (PC-10; Narishige, Tokyo, Japan) and fire-polished by a heater (Narishige, Tokyo, Japan). Whole-cell patch-clamp recordings were performed by an Axon 700B patch-clamp amplifier (Axon Instruments, Irvine, CA, USA). The P/4 protocol was used to subtract linear capacitive and leakage currents. Experimental data were acquired and analyzed using the programs Clampfit 10.0 (Axon Instruments, Irvine, CA, USA) and Sigmaplot 90 (Sigma, St. Louis, MO, USA).
Before use, the solution was diluted to the concentration of interest with fresh bathing solution. Toxin was introduced into the recording chamber (volume of 300 μL) and mixed by repeatedly pipetting 30 μL to achieve the demanded final concentration. The mixing process typically took ~5 s.
Data were analyzed using the Clampfit (Molecular Devices, Irvine, CA, USA) and Sigmaplot 10.0 (Sigma, St. Louis, MO, USA) software programs. All data points are shown as mean ± S.E. n is the number of the separated experimental cells. […] The Hill coefficient was set to 1 except where indicated. The box plots were generated at http://boxplot.tyerslab.com. In the box plots, center lines show the medians; box limits indicate the 25th and 75th percentiles as determined by R software; whiskers extend 1.5 times the interquartile range from the 25th and 75th percentiles, outliers are represented by dots. Time courses were fitted by using single exponential decay function.

[1] = read-out: IC50 on rNaV1.4 (alanine mutants)

T1 sequence (Q14524 whole entry): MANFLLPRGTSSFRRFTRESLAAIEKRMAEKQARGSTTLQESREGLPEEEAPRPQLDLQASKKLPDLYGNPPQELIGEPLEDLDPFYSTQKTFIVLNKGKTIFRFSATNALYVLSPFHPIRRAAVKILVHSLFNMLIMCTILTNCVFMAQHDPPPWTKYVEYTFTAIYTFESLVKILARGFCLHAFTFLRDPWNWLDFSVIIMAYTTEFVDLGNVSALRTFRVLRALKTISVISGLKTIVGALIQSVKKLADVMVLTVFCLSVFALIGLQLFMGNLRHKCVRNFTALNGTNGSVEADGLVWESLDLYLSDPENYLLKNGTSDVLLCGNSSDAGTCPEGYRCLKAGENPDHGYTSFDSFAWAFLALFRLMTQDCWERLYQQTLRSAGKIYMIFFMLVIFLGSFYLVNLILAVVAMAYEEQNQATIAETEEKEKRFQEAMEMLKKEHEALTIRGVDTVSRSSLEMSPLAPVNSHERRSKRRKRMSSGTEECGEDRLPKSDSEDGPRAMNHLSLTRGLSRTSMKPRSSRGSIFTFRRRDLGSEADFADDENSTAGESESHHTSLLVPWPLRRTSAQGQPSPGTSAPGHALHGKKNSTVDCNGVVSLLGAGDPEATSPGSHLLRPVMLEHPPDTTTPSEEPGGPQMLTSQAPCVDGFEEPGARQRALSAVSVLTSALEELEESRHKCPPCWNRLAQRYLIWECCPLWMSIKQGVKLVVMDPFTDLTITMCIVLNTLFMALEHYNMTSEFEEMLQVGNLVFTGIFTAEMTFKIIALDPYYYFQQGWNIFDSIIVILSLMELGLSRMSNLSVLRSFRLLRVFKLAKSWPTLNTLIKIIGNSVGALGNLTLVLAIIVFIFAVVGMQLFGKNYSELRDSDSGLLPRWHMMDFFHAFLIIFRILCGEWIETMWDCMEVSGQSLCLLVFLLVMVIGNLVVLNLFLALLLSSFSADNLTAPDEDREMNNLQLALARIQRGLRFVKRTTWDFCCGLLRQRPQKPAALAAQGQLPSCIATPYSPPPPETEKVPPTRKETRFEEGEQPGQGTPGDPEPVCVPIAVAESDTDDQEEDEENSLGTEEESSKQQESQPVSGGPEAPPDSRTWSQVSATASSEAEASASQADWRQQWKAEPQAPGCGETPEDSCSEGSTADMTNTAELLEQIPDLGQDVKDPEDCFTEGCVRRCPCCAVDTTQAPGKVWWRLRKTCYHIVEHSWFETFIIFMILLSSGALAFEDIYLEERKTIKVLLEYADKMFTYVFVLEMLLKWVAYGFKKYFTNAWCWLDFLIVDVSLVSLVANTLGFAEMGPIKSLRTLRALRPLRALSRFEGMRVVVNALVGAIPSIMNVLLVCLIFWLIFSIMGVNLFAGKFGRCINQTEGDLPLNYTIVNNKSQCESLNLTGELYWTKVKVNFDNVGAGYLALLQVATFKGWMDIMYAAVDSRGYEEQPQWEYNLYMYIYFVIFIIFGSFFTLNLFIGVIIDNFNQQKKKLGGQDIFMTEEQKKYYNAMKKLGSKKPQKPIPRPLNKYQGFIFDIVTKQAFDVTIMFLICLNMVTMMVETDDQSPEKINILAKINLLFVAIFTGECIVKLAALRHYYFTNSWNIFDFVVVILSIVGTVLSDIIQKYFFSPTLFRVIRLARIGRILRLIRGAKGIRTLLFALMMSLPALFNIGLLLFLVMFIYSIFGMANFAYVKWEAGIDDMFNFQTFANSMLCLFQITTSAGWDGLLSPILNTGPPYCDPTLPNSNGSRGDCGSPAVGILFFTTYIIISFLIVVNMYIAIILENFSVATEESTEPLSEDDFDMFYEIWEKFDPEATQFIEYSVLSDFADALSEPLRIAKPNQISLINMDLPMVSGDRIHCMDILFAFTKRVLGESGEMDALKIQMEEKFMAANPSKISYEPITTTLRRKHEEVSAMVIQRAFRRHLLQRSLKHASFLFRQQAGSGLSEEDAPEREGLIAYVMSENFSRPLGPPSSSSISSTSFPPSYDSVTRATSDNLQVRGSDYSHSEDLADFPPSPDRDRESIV

In the case of `CC[C@H](C)[C@H](NC(=O)[C@@H](NC(=O)[C@H](CCCCN)NC(=O)[C@H](CCCNC(=N)N)NC(=O)[C@@H]1CSSC[C@@H]2NC(=O)[C@H](C)NC(=O)[C@H](CCCNC(=N)N)NC(=O)[C@H](CCCCN)NC(=O)[C@H](CO)NC(=O)[C@H](CC(=O)O)NC(=O)[C@@H]3CSSC[C@H](NC(=O)[C@H](CCCNC(=N)N)NC(=O)[C@H](CC(C)C)NC(=O)CNC(=O)[C@H](CCC(=O)O)NC(=O)[C@H](CSSC[C@H](NC(=O)[C@@H](N)Cc4ccc(O)cc4)C(=O)N[C@@H](CCC(N)=O)C(=O)N[C@@H](CCCCN)C(=O)N[C@@H](Cc4c[nH]c5ccccc45)C(=O)N[C@@H](CCSC)C(=O)N[C@@H](Cc4c[nH]c5ccccc45)C(=O)N[C@@H]([C@@H](C)O)C(=O)N3)NC2=O)C(=O)N[C@@H](CCCCN)C(=O)N[C@@H](CC(C)C)C(=O)N[C@@H](Cc2c[nH]c3ccccc23)C(=O)N1)[C@@H](C)CC)C(N)=O` [JZTX-V], the “decrease of hNaV1.5 activation (peak current)” value (hNaV1.5; 500 nM toxin, n = 8, −10 mV from −100 mV) is reported as 43% ± 6.5%, the IC50 (hNaV1.5; HEK 293 cells with β1 subunit, 50-ms depolarization to −10 mV from −100 mV every 5 s, Hill fit, mean ± S.E., three to six cells, room temperature) is reported as 2700 ± 779 nM and the “inhibition of hNaV1.3 inward current (Figure 1c)” value (hNaV1.3) is reported as ~35%. For the same compound, the “inhibition of hNaV1.7 inward current (Figure 1b)” value (hNaV1.7) was “approximately 45%” and the IC50 (rNaV1.4; three to six cells, read-out: IC50 on rNaV1.4) was 5.12 ± 0.87 nM.

Work on `CC[C@H](C)[C@H](NC(=O)[C@@H](NC(=O)[C@H](CCCCN)NC(=O)[C@H](CCCNC(=N)N)NC(=O)[C@@H]1CSSC[C@@H]2NC(=O)[C@H](C)NC(=O)[C@H](CCCNC(=N)N)NC(=O)[C@H](CCCCN)NC(=O)[C@H](CO)NC(=O)[C@H](CC(=O)O)NC(=O)[C@@H]3CSSC[C@H](NC(=O)[C@H](CCCNC(=N)N)NC(=O)[C@H](CC(C)C)NC(=O)CNC(=O)[C@H](CCC(=O)O)NC(=O)[C@H](CSSC[C@H](NC(=O)[C@@H](N)Cc4ccc(O)cc4)C(=O)N[C@@H](CCC(N)=O)C(=O)N[C@@H](CCCCN)C(=O)N[C@@H](Cc4c[nH]c5ccccc45)C(=O)N[C@@H](C)C(=O)N[C@@H](Cc4c[nH]c5ccccc45)C(=O)N[C@@H]([C@@H](C)O)C(=O)N3)NC2=O)C(=O)N[C@@H](CCCCN)C(=O)N[C@@H](CC(C)C)C(=O)N[C@@H](Cc2c[nH]c3ccccc23)C(=O)N1)[C@@H](C)CC)C(N)=O` [M6A] yielded an IC50 (rNaV1.4; [1]) of 252 ± 450 nM.

`CC[C@H](C)[C@H](NC(=O)[C@@H](NC(=O)[C@H](CCCCN)NC(=O)[C@H](CCCNC(=N)N)NC(=O)[C@@H]1CSSC[C@@H]2NC(=O)[C@H](C)NC(=O)[C@H](CCCNC(=N)N)NC(=O)[C@H](CCCCN)NC(=O)[C@H](CO)NC(=O)[C@H](CC(=O)O)NC(=O)[C@@H]3CSSC[C@H](NC(=O)[C@H](CCCNC(=N)N)NC(=O)[C@H](CC(C)C)NC(=O)CNC(=O)[C@H](CCC(=O)O)NC(=O)[C@H](CSSC[C@H](NC(=O)[C@@H](N)Cc4ccc(O)cc4)C(=O)N[C@@H](CCC(N)=O)C(=O)N[C@@H](CCCCN)C(=O)N[C@@H](C)C(=O)N[C@@H](CCSC)C(=O)N[C@@H](Cc4c[nH]c5ccccc45)C(=O)N[C@@H]([C@@H](C)O)C(=O)N3)NC2=O)C(=O)N[C@@H](CCCCN)C(=O)N[C@@H](CC(C)C)C(=O)N[C@@H](Cc2c[nH]c3ccccc23)C(=O)N1)[C@@H](C)CC)C(N)=O` [W5A] was tested, and the IC50 (rNaV1.4; [1]) was 313 ± 260 nM.

`CC[C@H](C)[C@H](NC(=O)[C@@H](NC(=O)[C@H](CCCCN)NC(=O)[C@H](CCCNC(=N)N)NC(=O)[C@@H]1CSSC[C@@H]2NC(=O)[C@H](C)NC(=O)[C@H](CCCNC(=N)N)NC(=O)[C@H](CCCCN)NC(=O)[C@H](CO)NC(=O)[C@H](CC(=O)O)NC(=O)[C@@H]3CSSC[C@H](NC(=O)[C@H](C)NC(=O)[C@H](CC(C)C)NC(=O)CNC(=O)[C@H](CCC(=O)O)NC(=O)[C@H](CSSC[C@H](NC(=O)[C@@H](N)Cc4ccc(O)cc4)C(=O)N[C@@H](CCC(N)=O)C(=O)N[C@@H](CCCCN)C(=O)N[C@@H](Cc4c[nH]c5ccccc45)C(=O)N[C@@H](CCSC)C(=O)N[C@@H](Cc4c[nH]c5ccccc45)C(=O)N[C@@H]([C@@H](C)O)C(=O)N3)NC2=O)C(=O)N[C@@H](CCCCN)C(=O)N[C@@H](CC(C)C)C(=O)N[C@@H](Cc2c[nH]c3ccccc23)C(=O)N1)[C@@H](C)CC)C(N)=O` [R20A] showed an IC50 (rNaV1.4; [1]) of 2100 ± 280 nM.

Compound `CC[C@H](C)[C@H](NC(=O)[C@@H](NC(=O)[C@H](CCCCN)NC(=O)[C@H](CCCNC(=N)N)NC(=O)[C@@H]1CSSC[C@@H]2NC(=O)[C@H](C)NC(=O)[C@H](CCCNC(=N)N)NC(=O)[C@H](CCCCN)NC(=O)[C@H](CO)NC(=O)[C@H](CC(=O)O)NC(=O)[C@@H]3CSSC[C@H](NC(=O)[C@H](CCCNC(=N)N)NC(=O)[C@H](CC(C)C)NC(=O)CNC(=O)[C@H](CCC(=O)O)NC(=O)[C@H](CSSC[C@H](NC(=O)[C@@H](N)Cc4ccc(O)cc4)C(=O)N[C@@H](CCC(N)=O)C(=O)N[C@@H](CCCCN)C(=O)N[C@@H](Cc4c[nH]c5ccccc45)C(=O)N[C@@H](CCSC)C(=O)N[C@@H](Cc4c[nH]c5ccccc45)C(=O)N[C@@H]([C@@H](C)O)C(=O)N3)NC2=O)C(=O)N[C@@H](C)C(=O)N[C@@H](CC(C)C)C(=O)N[C@@H](Cc2c[nH]c3ccccc23)C(=O)N1)[C@@H](C)CC)C(N)=O` [K22A] has an IC50 (rNaV1.4; [1]) of 659 ± 11 nM.

For `CC[C@H](C)[C@H](NC(=O)[C@@H](NC(=O)[C@H](CCCCN)NC(=O)[C@H](CCCNC(=N)N)NC(=O)[C@@H]1CSSC[C@@H]2NC(=O)[C@H](C)NC(=O)[C@H](CCCNC(=N)N)NC(=O)[C@H](CCCCN)NC(=O)[C@H](CO)NC(=O)[C@H](CC(=O)O)NC(=O)[C@@H]3CSSC[C@H](NC(=O)[C@H](CCCNC(=N)N)NC(=O)[C@H](CC(C)C)NC(=O)CNC(=O)[C@H](CCC(=O)O)NC(=O)[C@H](CSSC[C@H](NC(=O)[C@@H](N)Cc4ccc(O)cc4)C(=O)N[C@@H](CCC(N)=O)C(=O)N[C@@H](CCCCN)C(=O)N[C@@H](Cc4c[nH]c5ccccc45)C(=O)N[C@@H](CCSC)C(=O)N[C@@H](C)C(=O)N[C@@H]([C@@H](C)O)C(=O)N3)NC2=O)C(=O)N[C@@H](CCCCN)C(=O)N[C@@H](CC(C)C)C(=O)N[C@@H](Cc2c[nH]c3ccccc23)C(=O)N1)[C@@H](C)CC)C(N)=O` [W7A], the IC50 (rNaV1.4; [1]) was 1920 ± 310 nM.
